Experimental data from patent US10947216B2, “Amide compounds and method for making and using” (Rigel Pharmaceuticals, Inc., priority 2016, dated 2021).
pEC50: −log10 of the molar value. Where a name gives a salt, the structure may show the parent alone.

How the values were obtained:
[1] = tested on: IL-23 (p19/p40); assay: IL23-p19 ELISA, dendritic cells (DC differentiated from human PBMC, IFNγ primed), LPS stimulated; format: cell-based; details: Dendritic cell, human PBMC-derived dendritic cells, 1 h compound pre-incubation, LPS 1 μg/ml 18 hours, 10 pt
Protocol: Compound Screening Using DC Cells
I. Differentiation of PBMC's to DC Cells:
After 2 hours, the media including floating cells was aspirated out carefully and 12 ml of fresh RPMI media (10% FBS) containing GMCSF (100 ng/ml) and IL4 (20 ng/ml) was added, and the flask was kept in a 37° C. incubator for 7 days.
After 3 days, fresh GMCSF (100 ng/ml) and IL4 (20 ng/ml) were added to the flask and the incubation continued. After 7 days, the fully differentiated cells were harvested by spinning down (1200 rpm/5 min) and aspirating the media. The cells were suspended in fresh RPMI media (10% FBS) containing 50 ng/ml IFNγ (1000 U/ml) and then plated (50K/well in 100 μl) onto a white clear bottom 96 well plate and left in a 37° C. incubator for 24 hours.
II. Addition of Compounds:
After 24 hours incubation, 100 μl of RPMI media was added containing 2× concentrated test compound per well to the above cell-culture media (final concentration becomes 1×) and the plates were pre-incubated for 1 hour at 37° C. before stimulating with LPS.
The mixture was shaken and incubated the plates at 37° C. for an additional 18 hours.
155 μl of the supernatant was harvested from each well carefully (without the tip touching the bottom of the well) and to the remaining 50 μl/well of the cell culture plate was added 50 μl of Cell Titer Glo reagent. The mixture was incubated for 1-2 minutes on a shaker and the plate was read for luminescence intensity to determine the compound cytotoxicity. The cell culture supernatant collected above was used to carry out IL23 ELISA (65 μl—Supernatant) and IL10 ELISA (90 μl—Supernatant) as described below.
Human IL-23 (p19/p40) ELISA Protocol (e-Biosciences)
To 10.5 ml PBS add 50 μl of anti-IL23 (p19) was added capture antibody (2.5 μg/ml). The mixture was mixed well and 100 μl of the coating solution was added to each well of the 96 well white plates from Pierce. The wells were covered and incubated overnight at 4° C.
The anti-IL23 (p19)-antibody-coated plates were washed 2× using TBST (use plate washer) and blocked using 200 μl of 0.5% Casein for 1.5-2 hours at room temperature with shaking.
Addition of Supernatant and Detection:
The plates were washed 2× using TBST and the supernatant was transferred (65 μl/well) to the above pre-blocked/IL23(p19)-antibody-coated 96 well plate, and incubated at room temperature for 1.5 hours with shaking.
The plates were washed 4× using TBST (plate washer) and 100 μl/well detection antibody solution prepared from 2 μl of biotin labeled anti-IL-12 (p40/p70) antibody in 11 ml 1% BSA/PBS solution (1-5000 dilution) was added. The plates were incubated for 1 hour with shaking at Room temperature.
Again, the plates were washed 4× with TBST and 100 μl of HRP labeled Streptavidin (R&D Systems) solution (10 μl/10 ml 1% BSA solution) was added, and the plates were incubated at room temperature for another 45 minutes with shaking.
After 45 minutes, the plates were washed with TBST 4× and 100 μl/well Super Signal ELISA Pico Chemiluminescent Substrate from Pierce (3.5 ml A+3.5 ml B+3.5 ml MQ water) was added. The plates were shaken for 1-2 minutes then read on a plate reader.

[2] = tested on: IL-23p19; assay: LPS Induced IL23p19 in THP-1 Cells (with IFNγ Primed) Assay; format: cell-based, human; details: Homo sapiens, THP-1, THP-1 cells, IFNγ (50 ng/mL) primed, 1 hour compound pre-incubation, LPS 1 ug/mL 18 hours, 10 pt; read-out: IL23-p19 ELISA, THP1-IFNy, LPS, 10 pt EC50
Summary of the method: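 THP-1 cells (50K/well) primed ~18 h with IFNγ (50 ng/mL) in RPMI/10% FBS, then incubated with compound in duplicate for 18 h at 37° C. Supernatant IL-23p19 measured by chemiluminescent sandwich ELISA, giving EC50 by curve fitting. Toxicity assessed in parallel on the remaining cells by Cell Titer Glo.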

| SMILES | pEC50 [1] | pEC50 [2] |
| --- | --- | --- |
| CC(C)Nc1cncc(-c2cccc(C(=O)Nc3cn(C)nc3-c3ccccn3)n2)c1 [Compound I-28, 5′-(isopropylamino)-N-(1-methyl-3-(pyridin-2-yl)-1H-pyrazol-4-yl)-[2,3′-bipyridine]-6-carboxamide] | 6.26 | 5.84 |
| Cn1cc(NC(=O)c2cccc(-c3cncc(NCC(F)(F)F)c3)n2)c(-c2ccccn2)n1 [Compound I-33, N-(1-methyl-3-(pyridin-2-yl)-1H-pyrazol-4-yl)-5′-((2,2,2-trifluoroethyl)amino)-[2,3′-bipyridine]-6-carboxamide] | 5.99 | 5.50 |
| CN(C)c1cccc(-c2cccc(C(=O)Nc3cn(C)nc3-c3ccccn3)n2)c1 [Compound I-59, 6-(3-(dimethylamino)phenyl)-N-(1-methyl-3-(pyridin-2-yl)-1H-pyrazol-4-yl)picolinamide] | 5.61 | 4.62 |
| COc1ccc(-c2nn(C)cc2NC(=O)c2cccc(-c3ccn[nH]3)n2)nc1 [Compound I-67, N-(3-(5-methoxypyridin-2-yl)-1-methyl-1H-pyrazol-4-yl)-6-(1H-pyrazol-5-yl)picolinamide] | 5.57 | 6.32 |
| COCCOCCn1cc(NC(=O)c2cccc(-c3ccnc(C)c3)n2)c(-c2ccccn2)n1 [Compound I-146, N-(1-(2-(2-methoxyethoxy)ethyl)-3-(pyridin-2-yl)-1H-pyrazol-4-yl)-2′-methyl-[2,4′-bipyridine]-6-carboxamide formate] | 5.23 | 5.37 |
| Cc1cc(-c2cccc(C(=O)Nc3cn(C)nc3-c3ccccn3)n2)[nH]n1 [Compound I-7, 6-(3-methyl-1H-pyrazol-5-yl)-N-(1-methyl-3-(pyridin-2-yl)-1H-pyrazol-4-yl)picolinamide] | 6.45 | 6.27 |
| Cn1cc(NC(=O)c2cccc(-c3cncc(N4CCCC4)c3)n2)c(-c2ccccn2)n1 [Compound I-36, N-(1-methyl-3-(pyridin-2-yl)-1H-pyrazol-4-yl)-5′-(pyrrolidin-1-yl)-[2,3′-bipyridine]-6-carboxamide] | 6.11 | 5.37 |
| Cn1cc(NC(=O)c2ccnc(-c3cc[nH]n3)n2)c(-c2ccccn2)n1 [Compound I-138, N-(1-methyl-3-(pyridin-2-yl)-1H-pyrazol-4-yl)-2-(1H-pyrazol-3-yl)pyrimidine-4-carboxamide] | 5.93 | 4.53 |
| Cn1cc(NC(=O)c2cccc(-c3cc[nH]n3)n2)c(-c2ccc(OC3COC3)cn2)n1 [Compound I-183, N-(1-methyl-3-(5-(oxetan-3-yloxy)pyridin-2-yl)-1H-pyrazol-4-yl)-6-(1H-pyrazol-3-yl)picolinamide] | 6.67 | 7.02 |
| Cc1cncc(-c2cccc(C(=O)Nc3cn(C(C)C)nc3-c3ccccn3)n2)c1 [Compound I-81, N-(1-isopropyl-3-(pyridin-2-yl)-1H-pyrazol-4-yl)-5′-methyl-[2,3′-bipyridine]-6-carboxamide] | 5.19 | 5.56 |
| Cc1cncc(-c2cccc(C(=O)Nc3cn(CCN4CCN(C)CC4)nc3-c3ccccn3)n2)c1 [Compound I-87, 5′-methyl-N-(1-(2-(4-methylpiperazin-1-yl)ethyl)-3-(pyridin-2-yl)-1H-pyrazol-4-yl)-[2,3′-bipyridine]-6-carboxamide] | 5.70 | 7.12 |
| CS(=O)(=O)Nc1cncc(-c2cccc(C(=O)Nc3cn(C4COC4)nc3-c3ccccn3)n2)c1 [Compound I-115, 5′-(methylsulfonamido)-N-(1-(oxetan-3-yl)-3-(pyridin-2-yl)-1H-pyrazol-4-yl)-[2,3′-bipyridine]-6-carboxamide] | 5.12 | 5.66 |
| COc1ccc(-c2cccc(C(=O)Nc3cn(C)nc3-c3ccccn3)n2)cc1 [Compound I-52, 6-(4-methoxyphenyl)-N-(1-methyl-3-(pyridin-2-yl)-1H-pyrazol-4-yl)picolinamide] | 5.95 | 5.35 |

Further compounds by rising pEC50 [1], results first:

| pEC50 [1] | pEC50 [2] | SMILES |
| --- | --- | --- |
| 4.89 | 5.18 | O=C(Nc1cn(C2COC2)nc1-c1ccccn1)c1cccc(-c2cncc(F)c2)n1 [Compound I-131, 5′-fluoro-N-(1-(oxetan-3-yl)-3-(pyridin-2-yl)-1H-pyrazol-4-yl)-[2,3′-bipyridine]-6-carboxamide] |
| 4.96 | 5.09 | O=C(Nc1cn(C2COC2)nc1-c1ccccn1)c1cccc(Br)n1 [Compound I-113, 6-bromo-N-(1-(oxetan-3-yl)-3-(pyridin-2-yl)-1H-pyrazol-4-yl)picolinamide] |
| 5.25 | 5.59 | COc1cncc(-c2cccc(C(=O)Nc3cn(C)nc3-c3ccccn3)n2)c1 [Compound I-19, 5′-methoxy-N-(1-methyl-3-(pyridin-2-yl)-1H-pyrazol-4-yl)-[2,3′-bipyridine]-6-carboxamide] |
| 5.30 | 5.40 | Cn1cc(NC(=O)c2ccnc(-c3cn[nH]c3)n2)c(-c2ccccn2)n1 [Compound I-137, N-(1-methyl-3-(pyridin-2-yl)-1H-pyrazol-4-yl)-2-(1H-pyrazol-4-yl)pyrimidine-4-carboxamide] |
| 5.38 | 5.12 | Cn1cc(NC(=O)c2cccc(-c3ccnc(NCC(F)(F)F)c3)n2)c(-c2ccccn2)n1 [Compound I-161, N-(1-methyl-3-(pyridin-2-yl)-1H-pyrazol-4-yl)-2′-((2,2,2-trifluoroethyl)amino)-[2,4′-bipyridine]-6-carboxamide formate] |
| 5.42 | 4.73 | Cn1cc(NC(=O)c2cccc(-c3cn[nH]c3)n2)c(N2CCOCC2)n1 [Compound I-74, N-(1-methyl-3-morpholino-1H-pyrazol-4-yl)-6-(1H-pyrazol-4-yl)picolinamide] |
| 5.52 | 4.33 | Cc1cncc(-c2ccnc(C(=O)Nc3cn(C)nc3-c3ccccn3)n2)c1 [Compound I-120, N-(1-methyl-3-(pyridin-2-yl)-1H-pyrazol-4-yl)-4-(5-methylpyridin-3-yl)pyrimidine-2-carboxamide] |
| 5.63 | 5.75 | Cc1cncc(-c2cccc(C(=O)Nc3cn(C4COC4)nc3-c3ccccn3)n2)c1 [Compound I-114, 5′-methyl-N-(1-(oxetan-3-yl)-3-(pyridin-2-yl)-1H-pyrazol-4-yl)-[2,3′-bipyridine]-6-carboxamide] |
| 6.28 | 5.87 | Cn1cc(NC(=O)c2cccc(-c3cncc(C4CC4)c3)n2)c(-c2ccccn2)n1 [Compound I-13, 5′-cyclopropyl-N-(1-methyl-3-(pyridin-2-yl)-1H-pyrazol-4-yl)-[2,3′-bipyridine]-6-carboxamide] |
| 6.39 | 7.01 | CN1CCN(CCn2cc(NC(=O)c3cccc(-c4cn[nH]c4)n3)c(-c3ccccn3)n2)CC1 [Compound I-86, N-(1-(2-(4-methylpiperazin-1-yl)ethyl)-3-(pyridin-2-yl)-1H-pyrazol-4-yl)-6-(1H-pyrazol-4-yl)picolinamide] |
| 7.15 | 5.96 | O=C(Nc1cn(C2CCOCC2)nc1-c1ccccn1)c1cccc(-c2cc[nH]n2)n1 [Compound I-166, 6-(1H-pyrazol-3-yl)-N-(3-(pyridin-2-yl)-1-(tetrahydro-2H-pyran-4-yl)-1H-pyrazol-4-yl)picolinamide] |
